# Reference: paper PMC10349828, “Mechanistic investigation of a D to N mutation in DAHP synthase that dictates carbon flux into the shikimate pathway in yeast” (Communications Chemistry, 2023)
# Experiments:
# [1] = molecular target: T1, Aro3 (Saccharomyces cerevisiae, UniProt P14843, D154N); experiment: DAHP formation, periodate-thiobarbituric acid assay at […] nm; type: biochemical; conditions: read-out: % remaining activity at 10 mM
# T1 construct: full-length ORF in pET21, C-terminal His6 tag, expressed in E. coli Rosetta 2 (DE3); Ni-NTA and gel filtration; dimer in crystal
# [2] = molecular target: T1, Aro3; experiment: isothermal titration calorimetry; type: binding
# [3] = molecular target: T2, Aro3 (Saccharomyces cerevisiae, UniProt P14843); experiment: DAHP formation, periodate-thiobarbituric acid assay at […] nm; type: biochemical; conditions: read-out: % inhibition at 0.1 mM
# T2 construct: full-length ORF in pET21, C-terminal His6 tag, expressed in E. coli Rosetta 2 (DE3); Ni-NTA and gel filtration; dimer in crystal
# [4] = molecular target: T2, Aro3; experiment: isothermal titration calorimetry; type: binding
# [5] = molecular target: T3, Aro3 (Saccharomyces cerevisiae, UniProt P14843, K222L); experiment: DAHP formation, periodate-thiobarbituric acid assay at […] nm; type: biochemical; conditions: read-out: % inhibition at 0.1 mM
# T3 construct: full-length ORF in pET21, C-terminal His6 tag, expressed in E. coli Rosetta 2 (DE3); Ni-NTA and gel filtration; dimer in crystal
# T3 sequence (P14843 whole entry K222L): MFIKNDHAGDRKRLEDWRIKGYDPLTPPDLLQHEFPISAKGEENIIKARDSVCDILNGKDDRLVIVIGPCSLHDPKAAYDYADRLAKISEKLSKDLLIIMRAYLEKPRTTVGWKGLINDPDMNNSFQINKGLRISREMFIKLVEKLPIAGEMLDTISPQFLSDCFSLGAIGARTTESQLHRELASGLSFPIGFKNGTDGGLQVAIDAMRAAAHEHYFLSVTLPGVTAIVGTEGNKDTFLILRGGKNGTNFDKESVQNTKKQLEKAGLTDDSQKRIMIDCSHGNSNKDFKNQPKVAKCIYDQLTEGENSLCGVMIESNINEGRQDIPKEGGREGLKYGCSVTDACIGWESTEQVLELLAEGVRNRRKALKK
# T1 sequence (P14843 whole entry D154N): as the sequence (P14843 whole entry K222L) above, with D154N, L222K counted along it
# T2 sequence (P14843 whole entry): as the sequence (P14843 whole entry K222L) above, with L222K counted along it
smiles,measurement,setting,value
N[C@@H](Cc1ccccc1)C(=O)O [L-Phe],remaining activity at 10000 µM,[1],71.2%
same,Kd,[2],336 ± 31.2 µM
same,inhibition at 100 µM,[3],~50%
same,Kd,[4],31.4 µM
same,inhibition at 100 µM,[5],~50%
